Read-outs that look alike come from different tables or passages of the source. Starred links: 1 amine or outer side, 2 acyl side, 3 side chain; linkers in the order of their positions; H or OH if unused. Positions of bridges follow the written chain, without caps; N, C: chain ends. Non-standard residues stand in square brackets, D forms with d. Residues, ends and D or L forms follow the SMILES beside them. *: point of attachment. X6 = CS(=O)(=O)c1ccc(-c2ccc(C[C@H](N[*:1])C(=O)[*:2])cc2)cc1; Phe(3-OCH2COOH) = N[C@@H](Cc1cccc(OCC(=O)O)c1)C(=O)O; Trp(1-Ph) = N[C@@H](Cc1cn(-c2ccccc2)c2ccccc12)C(=O)O; Piperidine(4-CH2CH2CONH2) = NC(=O)CCC1CCN(*)CC1; Phe(4-COOH) = N[C@@H](Cc1ccc(C(=O)O)cc1)C(=O)O; Trp(6-aza) = N[C@@H](Cc1c[nH]c2cnccc12)C(=O)O; Piperazinyl(4-CH2COOH) = O=C(O)CN1CCN(*)CC1; Piperidinyl(4-CH2COOH) = O=C(O)CC1CCN(*)CC1; Gly(decyl) = CCCCCCCCCC[C@H](N)C(=O)O; Gly(N(CH2)3COOH) = O=C(O)CCCNCC(=O)O; X1 = CCCCCCC[C@H](N[*:1])C(=O)[*:2]; NMeF = CN[C@@H](Cc1ccccc1)C(=O)O; NMeE = CN[C@@H](CCC(=O)O)C(=O)O; Cha = N[C@@H](CC1CCCCC1)C(=O)O; NMeA = CN[C@@H](C)C(=O)O; X9 = NC(=O)CC1CCN(*)CC1; NPrGly = CCCNCC(=O)O; NEtG = CCNCC(=O)O; Sar = CNCC(=O)O
Legend:
Myostatin = target: T1, Myostatin (Homo sapiens, UniProt O14793); test: HepG2 reporter gene assay, Evaluation Procedure (2): 2-concentrations assay, myostatin inhibition; assay type: cell-based
T1 construct: active myostatin (also called mature myostatin) is a homodimer consisting of two C-terminal growth factor domains; purchased R&D systems 788-G8/CF
T1 sequence (O14793 267-375): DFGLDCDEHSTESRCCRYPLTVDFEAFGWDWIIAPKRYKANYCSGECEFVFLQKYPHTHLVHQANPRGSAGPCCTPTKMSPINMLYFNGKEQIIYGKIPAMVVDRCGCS
Method in brief: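 HepG2 cells (HB-8065, ATCC) carrying the transfected pGL3(CAGA)12-luc reporter plasmid were treated with myostatin (788-G8/CF, R&D systems) at a final concentration of 10 ng/mL plus peptide and incubated at 37°C, 5% CO2 for 20 to 24 hours. Luminescence was read after adding PBS mixed 1:1 with One-Glo substrate, and inhibition rate was calculated.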

GDF-11 = target: T2, GDF-11 (Homo sapiens, UniProt O95390); test: HepG2 reporter gene assay, Evaluation Procedure (2): 2-concentrations assay, GDF-11 inhibition; assay type: cell-based
T2 construct: purchased R&D systems 1958-GD-G8/CF
T2 sequence (O95390 299-407): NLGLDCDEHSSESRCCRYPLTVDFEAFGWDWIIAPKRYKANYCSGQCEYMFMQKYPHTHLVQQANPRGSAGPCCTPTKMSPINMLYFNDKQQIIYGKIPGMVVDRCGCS
Method in brief: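 HepG2 cells carrying the transfected pGL3(CAGA)12-luc reporter, a pGL3 vector with luciferase placed downstream of 12 CAGA repeats, were stimulated with GDF-11 at a final 10 ng/mL together with test peptide. Blank wells received no GDF-11 and no peptide. Plates were incubated 20 to 24 hours at 37°C with 5% CO2. Luminescence from One-Glo substrate was read to calculate percent inhibition.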

[1] = Table 7-3/7-4, myostatin 10 ng/mL, peptide at the higher of the 2 concentrations, HepG2, read-out: inhibition rate (myostatin inhibition assay)
[2] = Table 7-3/7-4, myostatin 10 ng/mL, peptide at the lower of the 2 concentrations, HepG2, read-out: inhibition rate (myostatin inhibition assay)
[3] = HepG2, first GDF-11 column of Table 7-3/7-4, GDF-11 10 ng/mL, peptide at the lower of the 2 concentrations, read-out: inhibition rate (GDF-11 inhibition assay)
[4] = HepG2, second GDF-11 column of Table 7-3/7-4, GDF-11 10 ng/mL, peptide at the higher of the 2 concentrations, read-out: inhibition rate (GDF-11 inhibition assay)
[5] = HepG2, read-out: inhibition rate (myostatin inhibition assay)
[6] = HepG2, read-out: inhibition rate (GDF-11 inhibition assay), Table 7-3/7-4, GDF-11 10 ng/mL, peptide at the higher of the 2 concentrations
[7] = HepG2, read-out: inhibition rate (GDF-11 inhibition assay), Table 7-3/7-4, GDF-11 10 ng/mL, peptide at the lower of the 2 concentrations

Structure (SMILES) | inhibition at 0.1 µM (Myostatin; [1]) [%] | inhibition at 0.03 µM (Myostatin; [2]) [%] | inhibition (GDF-11; [3]) [%] | inhibition (GDF-11; [4]) [%] | inhibition at 0.03 µM (Myostatin; [5]) [%] | inhibition at 0.1 µM (Myostatin; [5]) [%] | inhibition (GDF-11; [6]) [%] | inhibition (GDF-11; [7]) [%]
CCCCCCCCCC[C@@H]1NC(=O)[C@H](CC2CCCCC2)NC(=O)[C@H](CCCNC(=N)N)NC(=O)[C@H](Cc2ccc(C(=O)O)cc2)NC(=O)[C@H](Cc2cccc(OCC(=O)O)c2)NC(=O)[C@H](C)N(C)C(=O)[C@H]([C@@H](C)CC)NC(=O)[C@H](Cc2ccccc2)N(C)C(=O)[C@H](Cc2ccc(O)cc2)NC(=O)[C@H](Cc2cn(-c3ccccc3)c3ccccc23)NC(=O)[C@H](C)NC(=O)[C@H](C)NC(=O)CSC[C@H](C(=O)N2CCN(CC(=O)O)CC2)NC(=O)[C@H](Cc2ccccc2)N(C)C(=O)[C@H](CCC(=O)O)N(C)C1=O [Myostatin_99_v333] ({CH2CO}-AA[Trp(1-Ph)]Y[NMeF]I[NMeA][Phe(3-OCH2COOH)][Phe(4-COOH)]R[Cha][Gly(decyl)][NMeE][NMeF][dC]-{Piperazinyl(4-CH2COOH)}; thioether N-15) | 100 | 100 | 0 | 34 | – | – | – | –
CCCCCCCCCC[C@@H]1NC(=O)[C@H](Cc2ccccc2)N(C)C(=O)[C@H](CCCNC(=N)N)NC(=O)[C@H](Cc2ccc(C(=O)O)cc2)NC(=O)[C@H](Cc2cccc(OCC(=O)O)c2)NC(=O)[C@H]2CCCN2C(=O)[C@H]([C@@H](C)CC)NC(=O)[C@H](Cc2ccccc2)N(C)C(=O)[C@H](Cc2ccc(O)cc2)NC(=O)[C@H](Cc2ccc(-c3ccc(S(C)(=O)=O)cc3)cc2)NC(=O)[C@H](C)NC(=O)[C@H](C)NC(=O)CSC[C@H](C(=O)N2CCC(CC(=O)O)CC2)NC(=O)[C@H](Cc2ccccc2)N(C)C(=O)[C@H](CCC(=O)O)N(C)C1=O [Myostatin_99_v342] ({CH2CO}-AA[X6]Y[NMeF]I[dP][Phe(3-OCH2COOH)][Phe(4-COOH)]R[NMeF][Gly(decyl)][NMeE][NMeF][dC]-{Piperidinyl(4-CH2COOH)}; thioether N-15) | – | – | – | – | 100 | 100 | 47 | 0
CCCCCCCCCC[C@@H]1NC(=O)[C@H](Cc2ccccc2)N(C)C(=O)[C@H](CCCNC(=N)N)NC(=O)[C@H](Cc2ccc(C(=O)O)cc2)NC(=O)[C@H](Cc2cccc(OCC(=O)O)c2)NC(=O)[C@H]2CCCN2C(=O)[C@H]([C@@H](C)CC)NC(=O)[C@H](Cc2ccccc2)N(C)C(=O)[C@H](Cc2ccc(O)cc2)NC(=O)[C@H](Cc2ccc(-c3ccc(S(C)(=O)=O)cc3)cc2)NC(=O)[C@H](C)NC(=O)[C@H](C)NC(=O)CSC[C@H](C(=O)N2CCC(CCC(N)=O)CC2)NC(=O)[C@H](Cc2ccccc2)N(C)C(=O)[C@H](CCC(=O)O)N(C)C1=O [Myostatin_99_v345] ({CH2CO}-AA[X6]Y[NMeF]I[dP][Phe(3-OCH2COOH)][Phe(4-COOH)]R[NMeF][Gly(decyl)][NMeE][NMeF][dC]-{Piperidine(4-CH2CH2CONH2)}; thioether N-15) | – | – | – | – | 100 | 100 | 70 | 7
CCCCCCCCCC[C@@H]1NC(=O)[C@H](Cc2ccccc2)N(C)C(=O)[C@H](CCCNC(=N)N)NC(=O)[C@H](Cc2ccc(C(=O)O)cc2)NC(=O)[C@H](Cc2cccc(OCC(=O)O)c2)NC(=O)[C@H]2CCCN2C(=O)[C@H]([C@@H](C)CC)NC(=O)[C@H](Cc2ccccc2)N(C)C(=O)[C@H](Cc2ccc(O)cc2)NC(=O)[C@H](Cc2c[nH]c3ccccc23)NC(=O)[C@H](C)NC(=O)[C@H](C)NC(=O)CSC[C@H](C(=O)N2CCC(CC(N)=O)CC2)NC(=O)[C@H](Cc2ccccc2)N(C)C(=O)[C@H](CCC(=O)O)N(C)C1=O [Myostatin_99_v347] ({CH2CO}-AAWY[NMeF]I[dP][Phe(3-OCH2COOH)][Phe(4-COOH)]R[NMeF][Gly(decyl)][NMeE][NMeF][dC]-X9; thioether N-15) | 100 | 100 | 0 | 8 | – | – | – | –
CCCCCCC[C@@H]1NC(=O)[C@H](Cc2ccccc2)N(C)C(=O)[C@H](CCCNC(=N)N)NC(=O)[C@H](Cc2ccc(C(=O)O)cc2)NC(=O)[C@H](Cc2cccc(OCC(=O)O)c2)NC(=O)[C@H](C)N(C)C(=O)[C@H]([C@@H](C)CC)NC(=O)[C@H](Cc2ccccc2)N(C)C(=O)[C@H](Cc2ccc(O)cc2)NC(=O)[C@H](Cc2ccc(-c3ccc(S(C)(=O)=O)cc3)cc2)NC(=O)[C@H](C)NC(=O)CN(CCCC(=O)O)C(=O)CSC[C@H](C(=O)O)NC(=O)[C@H](Cc2ccccc2)N(C)C(=O)[C@H](C)N(C)C1=O [Myostatin_99_v370] ({CH2CO}-[Gly(N(CH2)3COOH)]A[X6]Y[NMeF]I[NMeA][Phe(3-OCH2COOH)][Phe(4-COOH)]R[NMeF][X1][NMeA][NMeF][dC]-OH; thioether N-15) | – | – | – | – | 100 | 100 | 0 | 0

Now from value to molecule, other results behind:

inhibition at 0.1 µM (Myostatin; [1]) [%] | inhibition at 0.03 µM (Myostatin; [2]) [%] | inhibition (GDF-11; [3]) [%] | inhibition (GDF-11; [4]) [%] | Structure (SMILES) | inhibition at 0.03 µM (Myostatin; [5]) [%] | inhibition at 0.1 µM (Myostatin; [5]) [%] | inhibition (GDF-11; [6]) [%] | inhibition (GDF-11; [7]) [%]
99 | 90 | 0 | 0 | CCCCCCCCCC[C@@H]1NC(=O)[C@H](Cc2ccccc2)N(C)C(=O)[C@H](CCCNC(=N)N)NC(=O)[C@H](Cc2ccc(C(=O)O)cc2)NC(=O)[C@H](Cc2cccc(OCC(=O)O)c2)NC(=O)CN(CCC)C(=O)[C@H]([C@@H](C)CC)NC(=O)[C@H](Cc2ccccc2)N(C)C(=O)[C@H](Cc2ccc(O)cc2)NC(=O)[C@H](Cc2c[nH]c3ccccc23)NC(=O)[C@H](C)NC(=O)[C@H](C)NC(=O)CSC[C@H](C(=O)N2CCC(CC(=O)O)CC2)NC(=O)[C@H](Cc2ccccc2)N(C)C(=O)[C@H](CCC(=O)O)N(C)C1=O [Myostatin_99_v334] ({CH2CO}-AAWY[NMeF]I[NPrGly][Phe(3-OCH2COOH)][Phe(4-COOH)]R[NMeF][Gly(decyl)][NMeE][NMeF][dC]-{Piperidinyl(4-CH2COOH)}; thioether N-15) | – | – | – | –
100 | 99 | 0 | 0 | CCCCCCCCCC[C@@H]1NC(=O)[C@H](Cc2ccccc2)N(C)C(=O)[C@H](CCCNC(=N)N)NC(=O)[C@H](Cc2ccc(C(=O)O)cc2)NC(=O)[C@H](Cc2cccc(OCC(=O)O)c2)NC(=O)CN(CC)C(=O)[C@H]([C@@H](C)CC)NC(=O)[C@H](Cc2ccccc2)N(C)C(=O)[C@H](Cc2ccc(O)cc2)NC(=O)[C@H](Cc2c[nH]c3ccccc23)NC(=O)[C@H](C)NC(=O)[C@H](C)NC(=O)CSC[C@H](C(=O)N2CCC(CC(=O)O)CC2)NC(=O)[C@H](Cc2ccccc2)N(C)C(=O)[C@H](CCC(=O)O)N(C)C1=O [Myostatin_99_v336] ({CH2CO}-AAWY[NMeF]I[NEtG][Phe(3-OCH2COOH)][Phe(4-COOH)]R[NMeF][Gly(decyl)][NMeE][NMeF][dC]-{Piperidinyl(4-CH2COOH)}; thioether N-15) | – | – | – | –
96 | 82 | 0 | 0 | CCCCCCCCCC[C@@H]1NC(=O)[C@H](Cc2ccccc2)N(C)C(=O)[C@H](CCCNC(=N)N)NC(=O)[C@H](Cc2ccc(C(=O)O)cc2)NC(=O)[C@H](Cc2cccc(OCC(=O)O)c2)NC(=O)CN(CCC)C(=O)[C@H]([C@@H](C)CC)NC(=O)[C@H](Cc2ccccc2)N(C)C(=O)[C@H](Cc2ccc(O)cc2)NC(=O)[C@H](Cc2c[nH]c3cnccc23)NC(=O)[C@H](C)NC(=O)[C@H](C)NC(=O)CSC[C@H](C(=O)N2CCC(CC(=O)O)CC2)NC(=O)[C@H](Cc2ccccc2)N(C)C(=O)[C@H](CCC(=O)O)N(C)C1=O [Myostatin_99_v337] ({CH2CO}-AA[Trp(6-aza)]Y[NMeF]I[NPrGly][Phe(3-OCH2COOH)][Phe(4-COOH)]R[NMeF][Gly(decyl)][NMeE][NMeF][dC]-{Piperidinyl(4-CH2COOH)}; thioether N-15) | – | – | – | –
100 | 95 | 0 | 0 | CCCCCCCCCC[C@@H]1NC(=O)[C@H](Cc2ccccc2)N(C)C(=O)[C@H](CCCNC(=N)N)NC(=O)[C@H](Cc2ccc(C(=O)O)cc2)NC(=O)[C@H](Cc2cccc(OCC(=O)O)c2)NC(=O)CN(C)C(=O)[C@H]([C@@H](C)OC)NC(=O)[C@H](Cc2ccccc2)N(C)C(=O)[C@H](Cc2ccc(O)cc2)NC(=O)[C@H](Cc2c[nH]c3ccccc23)NC(=O)[C@H](C)NC(=O)[C@H](C)NC(=O)CSC[C@H](C(=O)N2CCC(CC(=O)O)CC2)NC(=O)[C@H](Cc2ccccc2)N(C)C(=O)[C@H](CCC(=O)O)N(C)C1=O [Myostatin_99_v340] ({CH2CO}-AAWY[NMeF]T(Me)[Sar][Phe(3-OCH2COOH)][Phe(4-COOH)]R[NMeF][Gly(decyl)][NMeE][NMeF][dC]-{Piperidinyl(4-CH2COOH)}; thioether N-15) | – | – | – | –

Reference: EP4786487A1, “PEPTIDE” (Peptidream Inc, priority 2023, dated 2025)
